Measured values reported in US20190127775A1 (priority 2016, published 2019).

What was measured:
[1] = system: methicillin resistant Staphylococcus aureus (MRSA; ATCC # 43300); experiment: Whole cell anti-MRSA growth inhibition screen (OD590) of Un-Met and Pre-Met library plates; format: cell-based
Description: Next, a copy of the library in its un-metabolized form and a copy of the library in its pre-metabolized form were created. The buffer used for library metabolism was (4×=4 times the concentration of each component in the final solution): 4× KPMEN Buffer: 200 mM KH2PO4; 4 mM K2EDTA; 20 mM glucose-6-phosphate, disodium salt (G6P); 4 mM NADPH, tetrasodium salt; pH adjusted to 7.4 with 1 M KOH. To each well in 1 set of the Reconstituted Copy Plates was added 45 μL 1.1× KEPNM Buffer to give 1 set of unmetabolized (“Un-Met”) Library Plates. […] Both sets of plates were incubated at room temperature for 24 hours with gentle rocking to provide 1 set of Un-Met Library Plates and 1 set of Pre-Met Library Plates. […]
Antibacterial activity screening was performed using methicillin resistant Staphylococcus aureus (MRSA; ATCC # 43300). […] The optical density of each well was then read at 590 nm (0D590) using a TECAN SpectraFluor Plus microtiter plate reader (Artisan Technology Group, Champaign, Ill.). These plates were also read prior to addition of bacteria to identify wells with compounds with a high OD590, so that these well could be examined manually for turbidity post bacterial growth, since a high prior OD590 would interfere with post bacterial growth OD590 measurement. […]

[2] = un-metabolized parent; only active after metabolic conversion into sulfanilamide; cited from earlier work

COc1ccc2c(c1)[C@]13CCCC[C@@H]1[C@H](C2)N(C)CC3 [dextromethorphan]
anti-MRSA activity in the Pre-Met plates ([1]; Pre-Met plates (human liver microsomes), cutoff OD590 0.18, 24 hours 35° C.): not in the Pre-Met plates | anti-MRSA activity in the Un-Met plates ([1]; Un-Met plates, cutoff OD590 0.15, 24 hours 35° C.): had anti-MRSA activity

Nc1ccc(/N=N/c2ccc(S(N)(=O)=O)cc2)c(N)c1 [protosil, prontosil]
antibacterial activity in vitro [2]: inactive in vitro
